pIC50: −log10 of the molar value.
What was measured:
[1] = parameters: method as in ELF screening history; conditions: ref ELF screening history, cited from earlier work; for Enzyme Active: number of ELF enzyme screens in which the compound was active; for Targets active: number of ELF screens in which the compound was active; for Enzyme Active %: share of ELF enzyme targets screened; for Targets Active %: share of all ELF targets screened
[2] = biological target: T1, IRAP (Homo sapiens, UniProt Q9UIQ6); test: Primary fluorescence IRAP assay (L-Leucine-7-amido-4-methylcoumarin cleavage); format: biochemical; conditions: for pIC50: 37.5 µM L-Leucine-7-amido-4-methylcoumarin, 60 min RT, dose-response 20 µM-27.4 nM, read-out: Fluorescence IC50; for LipE: calculated from (pIC50Fluorescence − LogD)
T1 construct: The screen was performed with the soluble truncated IRAP enzyme; made in house
Excerpt: The primary biochemical assay was developed to measure the enzymatic activity of IRAP.
To ensure biochemically sound, optimal, robust, and affordable assay conditions for large-scale screening, several factors need to be considered. […] For both primary fluorescence and orthogonal absorbance assays, non-binding 1536-well assay plates were used, and 0.05% BSA was included in the assay buffer to minimize the issues associated with protein sticking to plastics. The substrate Km values were determined in two separate experiments using two different batches of IRAP protein. For this, the IRAP progress curve was monitored every 5 min for 2 h using an Envision multimode plate reader (PerkinElmer, Waltham, MA, USA).
First, 10 nL of test compounds (4 mM) or 100% DMSO was dispensed into the 1536-well assay plates using an Echo acoustic liquid handler (Beckman Coulter, Brea, CA, USA). Then, 2 μL of protein working solution (5 × 10^−4 mg/mL) was dispensed to the negative control (min effect) and compound wells (final well concentration 2.5 × 10^−4 mg/mL) using a Certus Flex liquid dispenser (Fritz Gyger AG, Thun, Switzerland) and 2 μL assay buffer to the positive control wells (max effect) using a FLEXdrop (PerkinElmer, Waltham, MA, USA).
Figure S9. Reference compounds in Fluorescence IRAP assay with different end volumes in 1536-well format.
mg/ml) and 2 or 4 µL L -Leucine-7-amido-4-methylcoumarin (f.a.c.
Plates were measured on the Envision every 10 minutes for 140 minutes (data
shown up to 2 hours). %Effect was calculated using no protein as MAX effect (assay buffer was added instead of IRAP).

[3] = biological target: T1, IRAP; test: Deselection fluorescence IRAP assay with 10 µM zinc; format: biochemical; conditions: 10 µM ZnSO4 in assay buffer; read-out: Fluorescence + Zn pIC50 (converted)
Protocol: To prepare the assay buffer (50 mM Tris-HCl pH 7.4, 150 mM NaCl, 0.1 mM PMSF, 0.05% BSA) of the primary and orthogonal assays, 1 M Tris-HCl was prepared by dissolving 60.57 g Trizma-base (Mw 121.14 g/mol) (Sigma 93362-250G) in 500 mL MQ water, and the pH was adjusted to 7.4 using 4 M HCl. The solution was filtered with a 0.45 μm filter and stored at room temperature (RT). Then, 2 M NaCl stock was prepared by dissolving 29.22 g NaCl (Mw 58.44 g/mol) (Sigma S7653-250G) in 250 mL MQ water. The solution was filtered with a 0.45 μm filter and stored at RT. Next, 100 mM Phenylmethanesulfonylfluoride (PMSF) stock was prepared by dissolving 1 g PMSF (Mw 174.19 g/mol) (Sigma 78830-1G) in 57.4 mL isopropanol (Sigma I9516-500ML) and stored at 4 °C. A 10% Bovine Serum Albumin (BSA) stock solution was prepared by dissolving 2 g BSA (Mw 66.5 kDa) (Sigma A7030-50G), which was dissolved in 20 mL MQ water. The solution was filtered with a 0.45 μm filter, aliquoted, and stored at −20 °C. For the deselection assay buffer (50 mM Tris-HCl pH 7.4, 150 mM NaCl, 0.1 mM PMSF, 0.05% BSA, 10 μM ZnSO4), 1 mM ZnSO4 solution was prepared by dissolving 28.8 mg ZnSO4 (Mw 287.56 g/mol) (Sigma Z0251-100G) in 100 mL MQ water. The solution was filtered with a 0.45 μm filter and stored at RT. For the TSA assay buffer (50 mM Tris HCL, 150 mM NaCl, pH 7.4), stocks of 1 M Tris HCL and 2 M NaCl were prepared as described above.

[4] = biological target: T1, IRAP; test: Thermal shift (TSA) IRAP assay; format: binding; conditions: screening hits at 30 µM, 1% DMSO
Excerpt: The Thermal shift assay (TSA) is a biophysical technique measuring protein thermal stability. The assay relies on a fluorescent dye that is quenched in an aqueous environment but fluoresces when de-solvated in non-polar environments, such as the hydrophobic pockets of proteins. The target protein is mixed with the dye and heated gradually until it becomes completely denatured; as it unfolds or melts, the dye binds to newly exposed hydrophobic regions of the protein, resulting in a significant increase in fluorescence emission detected by a PCR system. The melting temperature (Tm) is calculated from the protein melt curve, and changes in Tm (known as ΔTm) are correlated with changes in protein stability and ligand binding. […] For the TSA assay, vehicle (DMSO) or compound was dispensed into MicroAmp Endura optical qPCR plates at the desired volume using an Echo acoustic liquid handler. […] The plates were then centrifuged for 10 s at 1000 rpm and sealed with Clear PCR-compatible plate seals.

[5] = biological target: T1, IRAP; test: Orthogonal absorbance IRAP assay (L-Leucine para-nitroanilide cleavage); format: biochemical; conditions: 1 mM L-Leucine p-Nitroanilide, 120 min RT; read-out: Absorbance pIC50 (converted)
Excerpt: The primary biochemical assay was developed to measure the enzymatic activity of IRAP. […] To establish an orthogonal assay, an alternative L-Leucine para-nitroanilide substrate was used, which IRAP turns over to L-Leucine and para-nitroaniline and is measurable by absorbance at 405 nm (Supplementary Figure S2B).
To ensure biochemically sound, optimal, robust, and affordable assay conditions for large-scale screening, several factors need to be considered. These include the final concentration of substrates, based on the determined substrate Km value; the assay kinetics and reaction linearity; achieving a minimal, rate limiting protein concentration; identifying optimal buffer additives and concentrations; the choice of assay plate type; the final assay volume per well; the stability of reagents; the magnitude and variance of the signal; and the potency and rank order of reference compounds. For both primary fluorescence and orthogonal absorbance assays, non-binding 1536-well assay plates were used, and 0.05% BSA was included in the assay buffer to minimize the issues associated with protein sticking to plastics. The substrate Km values were determined in two separate experiments using two different batches of IRAP protein. For this, the IRAP progress curve was monitored every 5 min for 2 h using an Envision multimode plate reader (PerkinElmer, Waltham, MA, USA). […] To evaluate if using substrate concentrations close to the determined Km values results in sufficient dynamic range within the linear range of the enzymatic reaction, Z′ and S/B were calculated for multiple time points up to 2.5 h in the presence and absence of reference compounds in both assays. The primary fluorescence assay reached an optimal Z′-value after 1 h when using 37.5 μM substrate (Supplementary Figure S5). For the absorbance, 2 h was required for the enzyme reaction time; however, using ~0.4 mM substrate was associated with increased assay variation and a poor Z′ (Supplementary Figure S6).
The orthogonal assay was performed in a black non-binding 1536-well plate (Corning 3728) and sealed with universal lids (Corning 3098). First, 20 nL of test compounds (4 mM) or 100% DMSO was dispensed into the 1536-well assay plates using an Echo acoustic liquid handler (Beckman Coulter). Then, 4 μL of protein working solution (5 × 10^−4 mg/mL) was dispensed to the negative control (min effect) and compound wells (final well concentration 2.5 × 10^−4 mg/mL) using the Certus Flex liquid dispenser (Fritz Gyger AG) and 4 μL assay buffer to the positive control wells (max effect) using the FLEXdrop (PerkinElmer). Next, 4 μL of 2 mM substrate working solution was dispensed into all wells using the FLEXdrop (final well concentration 1 mM). The assay plates were then centrifuged at 187.5× g for 30 s, incubated in the dark at RT for 120 min, and finally read on an Envision plate reader (PerkinElmer) (absorbance at 405 nm, 10 flashes per second). During the dose–response curve analysis in the orthogonal assay, 80 nL of compound (range 2.00 × 10^−3 M–2.74 × 10^−6 M) or 100% DMSO was dispensed into the assay plates using an Echo acoustic liquid handler (Beckman Coulter) with final well concentration range of 20 μM–27.4 nM compound and 1% DMSO.

T1 sequence (Q9UIQ6 155-1025 limits assumed): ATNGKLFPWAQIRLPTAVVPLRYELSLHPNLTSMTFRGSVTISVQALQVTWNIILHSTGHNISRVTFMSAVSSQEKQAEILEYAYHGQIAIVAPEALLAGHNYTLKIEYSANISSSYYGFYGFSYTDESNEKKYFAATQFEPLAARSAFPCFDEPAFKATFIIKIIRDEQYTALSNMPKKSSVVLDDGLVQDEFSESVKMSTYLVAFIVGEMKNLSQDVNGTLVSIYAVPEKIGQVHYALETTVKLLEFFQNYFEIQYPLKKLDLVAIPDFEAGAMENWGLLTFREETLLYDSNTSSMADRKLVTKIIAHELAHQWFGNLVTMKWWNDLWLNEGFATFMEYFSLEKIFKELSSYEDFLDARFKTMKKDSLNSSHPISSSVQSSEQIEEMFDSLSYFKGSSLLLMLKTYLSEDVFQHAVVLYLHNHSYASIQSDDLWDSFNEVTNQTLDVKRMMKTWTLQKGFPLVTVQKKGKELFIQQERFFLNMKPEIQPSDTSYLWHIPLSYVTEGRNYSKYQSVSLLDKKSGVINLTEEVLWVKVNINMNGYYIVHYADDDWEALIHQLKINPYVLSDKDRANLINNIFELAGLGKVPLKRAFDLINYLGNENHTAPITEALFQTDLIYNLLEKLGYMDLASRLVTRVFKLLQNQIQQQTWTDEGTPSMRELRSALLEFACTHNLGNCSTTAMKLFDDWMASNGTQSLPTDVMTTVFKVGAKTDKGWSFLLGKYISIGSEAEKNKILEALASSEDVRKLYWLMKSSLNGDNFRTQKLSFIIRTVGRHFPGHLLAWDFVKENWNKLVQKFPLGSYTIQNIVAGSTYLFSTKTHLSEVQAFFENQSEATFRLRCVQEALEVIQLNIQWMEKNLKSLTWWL

Row | Structure (SMILES) | Enzyme Active [1] | Targets active [1] | Enzyme Active % [1] | Targets Active % [1] | pIC50 [2] | LipE [2] | IC50 [3] | ΔTm at 30 µM [4] | IC50 [5]
1 | CC(C)C(CS(=O)(=O)N1CCC(c2ccc(F)cc2Cl)C1)C(=O)NO (stereo not drawn) [QHL6] | 3 | 5 | 3.2% | 3.4% | 5.90 | 3.57 | 1.23 µM | 3.55 °C | 5.75 µM
2 | Fc1ccc(F)c(Cn2ccc3ncc(N4CCNCC4)cc32)c1Cl [QHL7] | 8 | 9 | 8.6% | 6.0% | 5.89 | 2.10 | 1.38 µM | 0.3 °C | > 20 µM
3 | O=C(NO)C(CS(=O)(=O)N1CCC(c2ccc(F)cc2Cl)CC1)C1CCOCC1 (stereo not drawn) [QHL8] | 4 | 6 | 4.3% | 4.0% | 5.88 | 3.94 | 1.29 µM | 4.61 °C | 3.55 µM
4 | COc1cc(C(=O)N2CCc3n[nH]c(-c4cccs4)c3CC2)on1 [QHL9] | 2 | 4 | 4.9% | 5.3% | 5.82 | 2.98 | 1.58 µM | 0.15 °C | > 20 µM
5 | NCC[C@H]1CCCCN1C(=O)Cn1nc(-c2ccc(Cl)cc2)c2c1CCCC2 [QHL11] | 4 | 5 | 4.2% | 3.4% | 5.78 | 2.57 | 1.7 µM | 1.92 °C | 3.89 µM
6 | Cc1cccc(Cl)c1CNc1ncnc2ncn(C)c12 [QHL12] | 3 | 3 | 3.6% | 2.1% | 5.72 | 1.68 | 1.95 µM | -0.15 °C | 13.8 µM
7 | COc1ccc([C@@H]2c3nnnn3CCN2CCCN(C)c2ccccc2)c(C)c1 [QHL13] | 12 | 19 | 14.1% | 13.2% | 5.67 | 2.39 | 2 µM | -1.91 °C | 16.2 µM
8 | O=C(COCc1ccccc1)N1CCc2n[nH]c(-c3cccs3)c2CC1 [QHL14] | 3 | 5 | 7.3% | 6.6% | 5.65 | 2.42 | 2.34 µM | 0.15 °C | > 20 µM
9 | O=c1cc(N2CCCC2)nc2n(Cc3cc(Cl)ccc3Cl)ccn12 [QHL15] | 6 | 10 | 7.1% | 7.1% | 5.62 | 3.54 | 2.57 µM | -0.89 °C | > 20 µM
10 | CC(C)[C@@H](CS(=O)(=O)N(C)CC1CCc2ccccc2C1)C(=O)NO (stereo partly drawn) [QHL16] | 4 | 4 | 5.1% | 2.8% | 5.58 | 3.14 | 2.82 µM | 2.07 °C | 3.8 µM
11 | Cc1cc(NC(=O)Cn2cnc3sc4c(c3c2=O)CCCC4)n(-c2ccccc2)n1 [QHL17] | 4 | 5 | 4.2% | 3.3% | 5.58 | 2.19 | 3.24 µM | 0.3 °C | > 20 µM
12 | CC(C)c1cc(C(=O)N2CCc3n[nH]c(-c4cccs4)c3CC2)[nH]n1 [QHL19] | 4 | 6 | 9.5% | 7.9% | 5.55 | 1.83 | 2.95 µM | 0.3 °C | 16.2 µM
13 | CC(C)[C@@H](CS(=O)(=O)N(C)Cc1sc2ccccc2c1Cl)C(=O)NO [QHL20] | 1 | 3 | 1.9% | 2.9% | 5.55 | 2.71 | 3.16 µM | 4.15 °C | 5.75 µM
